pEC50, pKi: −log10 of the molar value. Structures can show the parent of a compound that is named as a salt. Where two headings read alike, the source gives them in different places.
Legend:
D1 receptor = molecular target: T1, D1 receptor (Homo sapiens, UniProt P21728); experiment: D1 Activation Adenylyl Cyclase Assay (cAMP FlashPlate, D1 transfected CHO cell line); format: cell-based
T1 construct: expressed in transfected cells; host or cells: D1 transfected CHO cell line
Method in brief: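 D1-transfected CHO cells (50,000/well) were exposed to compound 1/10 serial dilutions for 8 min at RT; cAMP measured by competitive 125I-cAMP FlashPlate against a standard curve. Response normalised between basal and saturating D1 agonist; EC50 at half-maximal stimulation, plateau reported as % maximal dopamine stimulation.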

[1] = molecular target: human dopamine D2Long (D2L) receptors (Homo sapiens, UniProt P14416)
human dopamine D2Long (D2L) receptors, sequence (P14416 whole entry): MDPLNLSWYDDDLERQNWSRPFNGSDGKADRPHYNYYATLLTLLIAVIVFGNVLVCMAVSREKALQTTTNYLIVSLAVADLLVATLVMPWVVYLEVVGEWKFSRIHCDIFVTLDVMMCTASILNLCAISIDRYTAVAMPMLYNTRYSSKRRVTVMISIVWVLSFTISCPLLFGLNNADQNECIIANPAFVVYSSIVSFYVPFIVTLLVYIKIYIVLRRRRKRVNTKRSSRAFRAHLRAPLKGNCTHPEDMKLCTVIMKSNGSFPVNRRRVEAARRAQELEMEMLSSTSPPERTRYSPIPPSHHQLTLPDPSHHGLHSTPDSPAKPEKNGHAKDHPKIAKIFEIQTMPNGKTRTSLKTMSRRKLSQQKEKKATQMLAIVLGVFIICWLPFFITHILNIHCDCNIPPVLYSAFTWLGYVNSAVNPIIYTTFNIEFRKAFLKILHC
Method: [N-Methyl-^3H]Spiroperidol Binding to Cloned Human Dopamine D2Long Receptors
This assay measures the in vitro activity of drugs on cloned human dopamine D2Long (D2L) receptors and predicts the direct dopamine-displacing properties of neuropsychiatric, cardiovascular and renal agents at human dopamine D2 receptors.
Cells were maintained in Ham's F12+10% Fetal Bovine Serum+Penicillin/Streptomycin (100 U/ml/100 μg/ml)+G418 (400 μg/ml) medium and were split using Trypsin-EDTA (1 ml/plate, room temperature for ˜2 min. or until cells have lifted off plates). • 2. […] Plates are incubated at 37° C.+5% CO2 for ˜3 days or until cells were confluent.
Cells are harvested by mechanical scraping, washed using PBS collected in 250 ml Corning polypropylene centrifuge tubes, spun down and resuspended in dH2O (final volume per harvest approximately 60 ml). Protein determination is made according to the method of Lowry (Biorad DC Assay Kit). Following the determination of the protein concentration, the protein is diluted into distilled water with 10% DMSO to the appropriate volume based on expression levels (Bmax). The concentrated protein is aliquoted into 1.5 ml screw top eppendorf tubes and placed into a −80° C. freezer.
Assay Requirement: 1 cryovial per two 96 well plates
0.5M Tris Wash Buffer, pH 7.7 • a) 44.4 g Tris HCl • 26.5 g Tris Base • q.s. to 1 Liter (0.5 M Tris buffer, pH 7.7 at 37° C.) • b) make a 1:10 dilution in distilled H2O (0.05 M. Tris buffer, pH 7.7) • 2. Tris Buffer containing physiological salts • a) Stock buffer • NaCl 7.014 g • KCl 0.372 g • CaCl2 0.222 g • MgCl2 0.204 g • q.s. To 100 ml with 0.5 M. Tris Buffer • b) Dilute 1:10 in distilled H2O • This yields 0.05 M. Tris HCl, pH 7.7, containing NaCl (120 mM), KCl (5 mM), CaCl2 (2 mM) and MgCl2 (1 mM) • Optional: add 0.1% ascorbic acid and check pH (in assays with compounds that may oxidize. • c) 1.0% polyethyleneimine stock in 0.5M Tris (reagent 1.a) • Dilute 1:10 in distilled H2O Binding Assay • 750 μl Tissue • 150 μl [^3H]NMSP • 100 μl vehicle (for total binding) or 30 μM (−)
eticlopride (for nonspecific binding) or appropriate drug concentration.
The 96-Well Packard Unifilters GF/B are incubated for >1 h at 25° C. in 0.1% polyethylenimine. The cold tissue is added last and mixed on a orbital shaker for a few seconds and is then incubated at 37° C. for 30 min in a shaking water bath. The assay is stopped by rapid filtration through Packard Unifilter plates. The filter membranes are then washed with 15 ml of ice-cold 0.05 M Tris buffer. The filters are then dried (˜15 min. under a heat lamp or incubated for 15 min. in a 60° C. oven) and a bottom seal is applied. Then 40 μl of Packard Microscint 20 scintillation cocktail are added and a permanent topseal (Type P) is applied and heat sealed. The plates are placed in a Packard Topcount.
Specific binding is defined as the difference between total binding and the binding in the presence of 3 μM S-(−)-eticlopride. Total binding is approximately 10% of the total added ligand. […] The percent inhibition at each drug concentration is the mean of duplicate determinations.

[2] = molecular target: T2, human dopamine D1 receptor (Homo sapiens, UniProt P21728); experiment: [3H]-SCH-23390 binding to cloned human dopamine D1 receptors (CHO cell membranes)
T2 construct: A 1.4 Kb Hind III to Xho I fragment was subcloned into the vector pMMLV; expressed in transfected cells; host or cells: CHO cells, clone CHO-D1M#9 (plasmid pHD1MMLV), membranes
T2 sequence (P21728 whole entry, the tested form may be a part): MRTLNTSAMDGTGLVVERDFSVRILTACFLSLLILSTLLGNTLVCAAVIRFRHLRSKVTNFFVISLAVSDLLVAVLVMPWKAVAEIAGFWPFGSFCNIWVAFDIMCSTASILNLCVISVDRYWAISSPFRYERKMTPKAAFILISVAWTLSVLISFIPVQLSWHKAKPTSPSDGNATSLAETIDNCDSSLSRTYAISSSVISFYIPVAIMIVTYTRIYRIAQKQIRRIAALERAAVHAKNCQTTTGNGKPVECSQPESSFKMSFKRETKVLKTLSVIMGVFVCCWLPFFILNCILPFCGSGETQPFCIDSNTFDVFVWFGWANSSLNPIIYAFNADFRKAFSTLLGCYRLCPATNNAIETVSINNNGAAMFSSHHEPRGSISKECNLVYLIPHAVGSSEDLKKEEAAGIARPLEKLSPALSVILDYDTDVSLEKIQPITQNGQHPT

[3] = agonist activity at the D1 receptor, adenylate cyclase assay, D1 transfected CHO cell line, read-out: D1 EC50
[4] = competitive binding, [3H]-SCH-23390, cloned human D1 in CHO membranes, read-out: D1 affinity Ki

T1 sequence (P21728 whole entry): as the sequence (P21728 whole entry, the tested form may be a part) above

What does the source list for Cc1ccc2c(c1O)C[C@@H](C1CCN(Cc3cc(C(F)(F)F)cc(C(F)(F)F)c3)CC1)O[C@H]2CN [Example 75, (1R,3S)-1-Aminomethyl-3-[1-(3,5-bis-trifluoromethyl-benzyl)-piperidin-4-yl]-6-methyl-isochroman-5-ol dihydrochloride]?
pEC50 (D1 receptor; [3]): 6.66; pKi [1]: 6.92; pKi [2, 4]: 7.38

Which results are given for Cc1ccc2c(c1O)C[C@@H](C1CCN(Cc3cc(C(F)(F)F)ccc3C(F)(F)F)CC1)O[C@H]2CN [Example 76, (1R,3S)-1-Aminomethyl-3-[1-(2,5-bis-trifluoromethyl-benzyl)-piperidin-4-yl]-6-methyl-isochroman-5-ol dihydrochloride]?
pEC50 (D1 receptor; [3]): 6.24; pKi [1]: 7.39; pKi [2, 4]: 7.04

Cc1ccc2c(c1O)C[C@@H](C1CCN(Cc3cc(C(F)(F)F)ccc3Cl)CC1)O[C@H]2CN [Example 77, (1R,3S)-1-Aminomethyl-3-[1-(2-chloro-5-trifluoromethyl-benzyl)-piperidin-4-yl]-6-methyl-isochroman-5-ol dihydrochloride] was tested. Which pEC50 (D1 receptor; [3]) did it give?
The pEC50 was 7.10.

What about the pKi [1] of the same compound?
The pKi was 7.40.

And the pKi [2, 4]?
Its pKi is 7.44.

With Cc1ccc2c(c1O)C[C@@H](C1CCN(Cc3ccc(Cl)c(C(F)(F)F)c3)CC1)O[C@H]2CN [Example 78, (1R,3S)-1-Aminomethyl-3-[1-(4-chloro-3-trifluoromethyl-benzyl)-piperidin-4-yl]-6-methyl-isochroman-5-ol dihydrochloride] as the compound, how does the pEC50 (D1 receptor; [3]) read?
The pEC50 was 8.70.

What about the pKi [1] of the same compound?
The pKi was 6.71.

And the pKi [2, 4]?
The pKi was 7.85.

Cc1ccc2c(c1O)C[C@@H](C1CCN(Cc3cc4ccccc4o3)CC1)O[C@H]2CN [Example 85, (1R,3S)-1-Aminomethyl-3-(1-benzofuran-2-ylmethyl-piperidin-4-yl)-6-methyl-isochroman-5-ol dihydrochloride] was tested. Which pEC50 (D1 receptor; [3]) did it give?
The pEC50 was 7.80.

And the pKi [1]?
The pKi was 6.41.

What about the pKi [2, 4] of the same compound?
The pKi was 7.59.

Cc1ccc2c(c1O)C[C@@H](C1CCN(Cc3sc4ccccc4c3C)CC1)O[C@H]2CN [Example 86, (1R,3S)-1-Aminomethyl-6-methyl-3-[1-(3-methyl-benzo[b]thiophen-2-ylmethyl)-piperidin-4-yl]-isochroman-5-ol dihydrochloride] was tested. Which pEC50 (D1 receptor; [3]) did it give?
The pEC50 was 7.11.

What about the pKi [1] of the same compound?
The pKi was 7.01.

And the pKi [2, 4]?
The pKi was 7.40.

Which results are given for Cc1ccc2c(c1O)C[C@@H](C1CCN(Cc3csc4ccccc34)CC1)O[C@H]2CN [Example 87, (1R,3S)-1-Aminomethyl-6-methyl-3-(1-benzo[b]thiophen-3-ylmethyl-piperidin-4-yl)-isochroman-5-ol dihydrochloride]?
pEC50 (D1 receptor; [3]): 7.57; pKi [1]: 7.62; pKi [2, 4]: 7.62

How did the pEC50 (D1 receptor; [3]) turn out when Cc1ccc2c(c1O)C[C@@H](C1CCN(Cc3cc4ccccc4n3C)CC1)O[C@H]2CN [Example 88, (1R,3S)-1-Aminomethyl-6-methyl-3-[1-(1-methyl-1H-indol-2-ylmethyl)-piperidin-4-yl]-isochroman-5-ol dihydrochloride] was run?
The pEC50 was 7.54.

What about the pKi [1] of the same compound?
The pKi was 6.96.

And the pKi [2, 4]?
Its pKi is 7.18.

With Cc1ccc2c(c1O)C[C@@H](C1CCN(Cc3c[nH]c4ccccc34)CC1)O[C@H]2CN [Example 89, (1R,3S)-1-Aminomethyl-3-[1-(1H-indol-3-ylmethyl)-piperidin-4-yl]-6-methyl-isochroman-5-ol dihydrochloride] as the compound, how does the pEC50 (D1 receptor; [3]) read?
Its pEC50 is 8.10.

What about the pKi [1] of the same compound?
Its pKi is 6.70.

And the pKi [2, 4]?
Its pKi is 7.72.

How did the pEC50 (D1 receptor; [3]) turn out when Cc1ccc2c(c1O)C[C@@H](C1CCN(Cc3cn(C)c4ccccc34)CC1)O[C@H]2CN [Example 90, (1R,3S)-1-Aminomethyl-6-methyl-3-[1-(1-methyl-1H-indol-3-ylmethyl)-piperidin-4-yl]-isochroman-5-ol trihydrochloride] was run?
Its pEC50 is 8.05.

What about the pKi [1] of the same compound?
The pKi was 8.62.

What about the pKi [2, 4] of the same compound?
The pKi was 7.37.

How did the pEC50 (D1 receptor; [3]) turn out when Cc1ccc2c(c1O)C[C@@H](C1CCN(Cc3cn(Cc4ccccc4)c4ccccc34)CC1)O[C@H]2CN [Example 91, (1R,3S)-1-Aminomethyl-3-[1-(1-benzyl-1H-indol-3-ylmethyl)-piperidin-4-yl]-6-methyl-isochroman-5-ol dihydrochloride] was run?
The pEC50 was 7.92.

What about the pKi [1] of the same compound?
The pKi was 7.36.

And the pKi [2, 4]?
Its pKi is 7.39.

With Cc1ccc2c(c1O)C[C@@H](C1CCN(Cc3nc4ccccc4n3C)CC1)O[C@H]2CN [Example 92, (1R,3S)-1-Aminomethyl-6-methyl-3-[1-(1-methyl-1H-benzoimidazol-2-ylmethyl)-piperidin-4-yl]-isochroman-5-ol trihydrochloride] as the compound, how does the pEC50 (D1 receptor; [3]) read?
Its pEC50 is 9.01.

What about the pKi [1] of the same compound?
The pKi was 7.03.

And the pKi [2, 4]?
The pKi was 7.53.

Which results are given for CNC[C@@H]1O[C@H](C2CCN(CCc3ccccc3)CC2)Cc2c1ccc(C)c2O [Example 94, (1R,3S)-6-Methyl-1-methylaminomethyl-3-(1-phenethyl-piperidin-4-yl)-isochroman-5-ol dihydrochloride]?
pEC50 (D1 receptor; [3]): 7.46; pKi [1]: 6.55; pKi [2, 4]: 6.95

CNC[C@@H]1O[C@H](C2CCN(Cc3ccc(F)cc3)CC2)Cc2c1ccc(C)c2O [Example 95, 1R,3S)-3-[1-(4-Fluoro-benzyl)-piperidin-4-yl]-6-methyl-1-methylaminomethyl-isochroman-5-ol dihydrochloride] was tested. Which pEC50 (D1 receptor; [3]) did it give?
The pEC50 was 6.60.

What about the pKi [1] of the same compound?
The pKi was 6.34.

And the pKi [2, 4]?
Its pKi is 6.92.

CNC[C@@H]1O[C@H](C2CCN(Cc3ccc(C(C)C)cc3)CC2)Cc2c1ccc(C)c2O [Example 97, (1R,3S)-3-[1-(4-Isopropyl-benzyl)-piperidin-4-yl]-6-methyl-1-methylaminomethyl-isochroman-5-ol dihydrochloride] was tested. Which pEC50 (D1 receptor; [3]) did it give?
Its pEC50 is 7.18.

What about the pKi [1] of the same compound?
Its pKi is 6.45.

What about the pKi [2, 4] of the same compound?
The pKi was 7.27.

CNC[C@@H]1O[C@H](C2CCN(Cc3ccc(-c4ccccc4)cc3)CC2)Cc2c1ccc(C)c2O [Example 98, (1R,3S)-3-(1-Biphenyl-4-ylmethyl-piperidin-4-yl)-6-methyl-1-methylaminomethyl-isochroman-5-ol dihydrochloride] was tested. Which pEC50 (D1 receptor; [3]) did it give?
Its pEC50 is 7.82.

What about the pKi [1] of the same compound?
Its pKi is 6.62.

And the pKi [2, 4]?
The pKi was 7.22.

With CNC[C@@H]1O[C@H](C2CCN(Cc3ccc(OC)cc3)CC2)Cc2c1ccc(C)c2O [Example 99, (1R,3S)-3-[1-(4-Methoxy-benzyl)-piperidin-4-yl]-6-methyl-1-methylaminomethyl-isochroman-5-ol dihydrochloride] as the compound, how does the pEC50 (D1 receptor; [3]) read?
Its pEC50 is 7.66.

And the pKi [1]?
The pKi was 6.51.

What about the pKi [2, 4] of the same compound?
The pKi was 7.27.

CNC[C@@H]1O[C@H](C2CCN(Cc3ccc(F)c(F)c3)CC2)Cc2c1ccc(C)c2O [Example 100, (1R,3S)-3-[1-(3,4-Difluoro-benzyl)-piperidin-4-yl]-6-methyl-1-methylaminomethyl-isochroman-5-ol dihydrochloride] was tested. Which pEC50 (D1 receptor; [3]) did it give?
The pEC50 was 7.22.

What about the pKi [1] of the same compound?
The pKi was no more than 4.00.

And the pKi [2, 4]?
Its pKi is 7.37.

How did the pEC50 (D1 receptor; [3]) turn out when CNC[C@@H]1O[C@H](C2CCN(Cc3ccc(C)cc3)CC2)Cc2c1ccc(C)c2O [Example 101, (1R,3S)-6-Methyl-1-methylaminomethyl-3-[1-(4-methyl-benzyl)-piperidin-4-yl]-isochroman-5-ol dihydrochloride] was run?
The pEC50 was 7.48.

What about the pKi [1] of the same compound?
The pKi was 6.49.

And the pKi [2, 4]?
The pKi was 7.04.

With Cc1ccc2c(c1O)C[C@@H](C1CCN(CCC(C)c3noc4cc(F)ccc34)CC1)O[C@H]2CN (stereo partly drawn) [Example 104, (1R,3S)-1-Aminomethyl-3-{1-[3-(6-fluoro-benzo[d]isoxazol-3-yl)butyl]piperidin-4-yl}-6-methylisochroman-5-ol dihydrochloride] as the compound, how does the pEC50 (D1 receptor; [3]) read?
Its pEC50 is 6.94.

What about the pKi [1] of the same compound?
Its pKi is 6.91.

What about the pKi [2, 4] of the same compound?
Its pKi is 7.15.

Which results are given for Cc1ccc2c(c1O)C[C@@H](C1CCN(CCc3ccccc3)CC1)O[C@H]2CN [Example 106, (1R,3S)-1-Aminomethyl-6-methyl-3-(1-phenethyl-piperidin-4-yl)-isochroman-5-ol dihydrobromide]?
pEC50 (D1 receptor; [3]): 7.54; pKi [1]: 6.56; pKi [2, 4]: 7.35

What does the source list for Cc1ccc2c(c1O)C[C@@H](C1CCN(CCc3cccc(Cl)c3)CC1)O[C@H]2CN [Example 107, (1R,3S)-1-Aminomethyl-3-{1-[2-(3-chloro-phenyl)-ethyl]-piperidin-4-yl}-6-methyl-isochroman-5-ol dihydrobromide]?
pEC50 (D1 receptor; [3]): 6.85; pKi [1]: ≤ 5.00; pKi [2, 4]: 6.03

How did the pEC50 (D1 receptor; [3]) turn out when Cc1ccc2c(c1O)C[C@@H](C1CCN(C/C=C/c3ccccc3)CC1)O[C@H]2CN [Example 109, (1R,3S)-1-Aminomethyl-6-methyl-3-[1-(3-phenyl-allyl)-piperidin-4-yl]-isochroman-5-ol dihydrobromide] was run?
Its pEC50 is 6.99.

And the pKi [1]?
The pKi was 6.67.

What about the pKi [2, 4] of the same compound?
Its pKi is 6.97.

How did the pEC50 (D1 receptor; [3]) turn out when Cc1ccc2c(c1O)C[C@@H](C1CCN(C(=O)OC(C)C)CC1)O[C@H]2CN [Example 111, 4-((1R,3S)-1-Aminomethyl-5-hydroxy-6-methyl-isochroman-3-yl)-piperidine-1-carboxylic acid isopropyl ester hydrochloride] was run?
The pEC50 was 7.31.

What about the pKi [1] of the same compound?
The pKi was 6.10.

And the pKi [2, 4]?
Its pKi is 6.78.

With COC(=O)N1CCC([C@@H]2Cc3c(ccc(C)c3O)[C@H](CN)O2)CC1 [Example 112, 4-((1R,3S)-1-Aminomethyl-5-hydroxy-6-methyl-isochroman-3-yl)-piperidine-1-carboxylic acid methyl ester hydrochloride] as the compound, how does the pEC50 (D1 receptor; [3]) read?
Its pEC50 is 9.22.

What about the pKi [1] of the same compound?
Its pKi is no more than 4.00.

And the pKi [2, 4]?
The pKi was 7.00.

Cc1ccc2c(c1O)C[C@@H](C1CCN(C(=O)Oc3ccccc3)CC1)O[C@H]2CN [Example 113, 4-((1R,3S)-1-Aminomethyl-5-hydroxy-6-methyl-isochroman-3-yl)-piperidine-1-carboxylic acid phenyl ester hydrochloride] was tested. Which pEC50 (D1 receptor) did it give?
The pEC50 was 8.38.

And the pKi [1]?
The pKi was no more than 4.00.

What about the pKi [2] of the same compound?
The pKi was 7.52.

What does the source list for Cc1ccc(OC(=O)N2CCC([C@@H]3Cc4c(ccc(C)c4O)[C@H](CN)O3)CC2)cc1 [Example 114, 4-((1R,3S)-1-Aminomethyl-5-hydroxy-6-methyl-isochroman-3-yl)-piperidine-1-carboxylic acid p-tolyl ester hydrochloride]?
pEC50 (D1 receptor): 9.07; pKi [1]: 6.29; pKi [2]: 7.19
